Data taken from article PMC10693084, “Novel 8-Methoxycoumarin-3-Carboxamides with potent anticancer activity against liver cancer via targeting caspase-3/7 and β-tubulin polymerization” (BMC Chemistry, 2023).

Assays:
[1] = test system: WI 38 normal cells; assay: MTT cytotoxicity assay against WI 38 normal cells; format: cell-based; settings: Homo sapiens, WI 38 normal lung cells, 24 h treatment
Protocol: (§1) Following the incubation period, the cells were subjected to various concentrations of the prepared molecules and subsequently incubated for a duration of 24 h. […] Subsequently, a volume of 100 μL of dimethyl sulfoxide (DMSO) was introduced into each well in order to facilitate the dissolution of the purple formazan that had been generated. The quantification of the color intensity of the formazan product, which serves as an indicator of the cellular growth condition, is performed by employing an ELISA plate reader set at a wavelength of 570 nm. The experimental conditions were implemented with a minimum of three replicates, and the experiments were conducted on at least three separate occasions.

[2] = test system: HepG2 cells; assay: Annexin V-FITC/PI apoptosis screening; format: cell-based, human; settings: HepG2, IC50 concentration, 24 h
Excerpt: Next, we have conducted Annexin V-FITC/PI screening to further investigate the impact of compound 5 on the growth of HepG2 cells and comprehensively analyze programmed cell death. The Annexin V-FITC/PI assay is a widely used method to differentiate between apoptotic and necrotic cells based on their membrane integrity and phospholipid exposure. […] The results from the Annexin V-FITC/PI screening provide crucial insights into the mode of action of compound 5 in inducing cell death in HepG2 cells. Annexin V-FITC is a marker that binds specifically to phosphatidylserine (PS), a phospholipid that becomes externalized on the cell membrane during early apoptosis. Propidium iodide (PI) is a dye that can penetrate cells with compromised membranes, typically found in late-stage apoptosis or necrosis. […] This is important since apoptosis is a highly regulated process, and its induction is a favorable outcome for anti-cancer therapies, as opposed to necrosis, which is often associated with cell death caused by injury or external damage. Overall, these findings from the Annexin V-FITC/PI screening support the ability of compound 5 to induce apoptosis in HepG2 cells and its lack of significant induction of necrosis reinforce its potential as a promising candidate for anti-cancer therapy.
Apoptosis detection in HepG-2 cells was conducted utilizing the BioVision® annexin‐V‐FITC apoptosis detection kit in accordance with the instructions provided by the manufacturer. The quantification of apoptosis was performed using a FACS Calibur flow cytometer, with a wavelength of 488 nm. In a concise manner, a total of 1–5 × 10^5 cells were obtained through the process of centrifugation. The cells were subsequently exposed to compound 5 at concentrations corresponding to its IC50 value for a duration of 24 h. Following this treatment, the cells were resuspended in a binding buffer solution with a volume of 500 μl. The addition of Annexin-V-FITC and PI was performed. Subsequently, the specimens were subjected to incubation at ambient temperature for a duration of 5 min, while being shielded from light. The analysis of Annexin-V-FITC binding was conducted utilizing a dedicated signal detector.

[3] = test system: human liver carcinoma HepG2 cells; assay: MTT cytotoxicity assay against HepG2 cells; format: cell-based; settings: HepG2 cells
Protocol: To assess the antitumor properties of these compounds, we utilized the 3-(4,5-dimethylthiazol-2-yl)-2,5-diphenyl tetrazolium bromide (MTT) colorimetric assay, a widely used method to evaluate cell viability and cytotoxicity.
as §1

[4] = test system: HepG2 cells; assay: Cell cycle analysis by flow cytometry (PI); format: cell-based, human; settings: HepG2, 0.9 µM (IC50), 24 h
Protocol: Next, our investigations focused on evaluating the effects of compound 5 on the cell cycle of HepG2 cells utilizing flow cytometric analysis. The cells were treated with compound 5 at a concentration corresponding to the IC50 value and the cell cycle distribution was then analyzed, and the results were compared with untreated control cells. […] Conversely, there was a notable increase in the cellular population at the G2/M and pre-G1 phases. […] These findings indicate that compound 5 induces a notable arrest in cell growth during the […] phase. The flow cytometric analysis of HepG2 cells treated with compound 5 provided valuable insights into its effects on the cell cycle distribution. […] The G0/G1 phase is the resting phase, where cells prepare for DNA replication and cell division, while the S phase is where DNA replication occurs. […] This is a critical control point where the cell ensures that DNA replication is complete and free from errors before entering mitosis. […] The most remarkable finding was the dramatic rise in the pre-G1 population upon treatment with compound 5. The pre-G1 phase is associated with cells undergoing apoptosis, which is a programmed cell death process. […] This implies that the treatment with compound 5 leads to the activation of apoptotic pathways, causing the cells to undergo DNA fragmentation and degradation, ultimately leading to cell death. […] G2/M arrest prevents cells from progressing through the cell cycle, while apoptosis eliminates the damaged or aberrant cells. These combined effects may contribute to the compound's potent anti-cancer activity against HepG2 cells.
The quantification of DNA content in the cell cycle analysis was performed using a FACS Calibur flow cytometer at a wavelength of 488 nm, following the guidelines provided by the manufacturer. […] Following the completion of the treatment, the cells underwent two rounds of washing and were subsequently resuspended in phosphate-buffered saline (PBS). Following the washing step, a volume of 0.7 ml of absolute ethanol was subsequently introduced, and the mixture was incubated at a temperature of -20 °C for a duration of 20 min. Following the washing step, a volume of 500 μl of RNase was introduced, and subsequently, the mixture was incubated for a duration of 30 min. Next, the addition of PI was carried out, followed by a 30-min incubation period, during which exposure to light was carefully avoided.

`COc1ccc(Br)c2cc(C(N)=O)c(=O)oc12` [Compound 5, 5-Bromo-8-methoxycoumarin-3-carboxamide] was tested, and the IC50 [1] was 24.1 ± 1.46 µM, the “fold increase of early apoptosis vs control” value [2] was 42 fold and the “fold increase of late-stage apoptosis vs control” value [2] was 100 fold. The “fold increase of necrosis vs untreated” value [2] was “threefold”, the “fold increase of programmed cell death vs untreated” value [2] was 22 fold and the “percentage of cells in late-stage apoptosis” value ([2]; control 0.22%) was 22.16%. For the same compound, the “percentage of cells undergoing early apoptosis” value ([2]; control 0.46%) was 19.51%, the “percentage of cells undergoing necrosis” value ([2]; untreated 1.4%) was 4.21% and the “total percentage of programmed cell death” value ([2]; untreated 2.08%) was 45.88%. For the same compound, the “Structure–activity summary of cytotoxic activity (Fig. 4B)” value [3] was “improved activity”, the IC50 ([3]; Homo sapiens, HepG2, 24 h, MTT, 24 h treatment) was 0.9 ± 0.05 µM and the “percentage of cells in pre-G1 phase” value ([4]; untreated 2.08%) was 45.88%. The “percentage of cells in G2/M phase” value ([4]; untreated 15.38%) was 31.51%, the “percentage of cells in S phase” value ([4]; untreated 34.91%) was 27.4% and the “percentage of cells in G0/G1 phase” value ([4]; untreated 49.71%) was 41.09%.
